Legend:
rat [1] = conditions: Multigenerational reproductive toxicity study, sprague dawley, Oral, Water, dose end: 2 generation, group: parental
rat [2] = conditions: Combined chronic toxicity/carcinogenicity; fischer; Oral; Gavage/Intubation; dose end: 2 year; group: systemic; systemic / in life observation / clinical signs / ataxia + systemic / in life observation / clinical signs / prostration + systemic / in …
mouse [3] = conditions: Subchronic oral toxicity in rodents, b6c3f1, Gavage/Intubation, dose end: 13 week, group: systemic
rat [4] = conditions: Prenatal developmental toxicity study; sprague dawley; Oral; Gavage/Intubation; dose end: 15 GD; group: maternal; systemic / in life observation / body weight / body weight gain
mouse [5] = conditions: Carcinogenicity; b6c3f1; Oral; Gavage/Intubation; dose end: 2 year; group: systemic; systemic / in life observation / body weight / body weight + systemic / in life observation / clinical signs / [other] + systemic / in life …
rat [6] = conditions: Subchronic oral toxicity in rodents, fischer, Gavage/Intubation, dose end: 13 week, group: systemic
rat [7] = conditions: Subchronic oral toxicity in rodents, other, Feed, dose end: 90 day, group: systemic
rat [8] = conditions: Developmental neurotoxicity study, sprague dawley, Inhalation, Whole-Body, dose end: 2 generation, group: cannot be grouped
mouse [9] = conditions: Carcinogenicity, b6c3f1, Oral, Feed, dose end: 78 week, group: systemic
rat [10] = conditions: Carcinogenicity, fischer, Oral, Feed, dose end: 78 week, group: systemic
rat [11] = conditions: Subchronic oral toxicity in rodents, fischer, Feed, dose end: 90 day, group: systemic, systemic / in life observation / body weight / body weight gain + systemic / pathology microscopic / kidney / calculus + systemic / …
mouse [12] = conditions: Carcinogenicity, b6c3f1, Oral, Feed, dose end: 103 week, group: systemic
mouse [13] = conditions: Subchronic oral toxicity in rodents, b6c3f1, Feed, dose end: 13 week, group: systemic
rat [14] = conditions: Carcinogenicity, fischer, Oral, Feed, dose end: 103 week, group: systemic
rat [15] = conditions: Subchronic oral toxicity in rodents, fischer, Feed, dose end: 13 week, group: systemic
mouse [16] = conditions: Subchronic oral toxicity in rodents, b6c3f1, Feed, dose end: 90 day, group: systemic
rat [17] = conditions: Subchronic oral toxicity in rodents, fischer, Feed, dose end: 13 week, group: systemic; remark: listed apart in the source
rat [18] = conditions: Multigenerational reproductive toxicity study, sprague dawley, Oral, Feed, dose end: 2 generation
rat [19] = conditions: Prenatal developmental toxicity study, wistar, Oral, Gavage/Intubation, dose end: 15 GD
dog [20] = conditions: Sub-acute repeat dose toxicity, beagle, Oral, Gavage/Intubation, dose end: 7 day, group: systemic
dog [21] = conditions: Sub-acute repeat dose toxicity, beagle, Oral, Gavage/Intubation, dose end: 5 day, group: systemic
rat [22] = conditions: Sub-acute repeat dose toxicity, sprague dawley, Oral, Gavage/Intubation, dose end: 5 day, group: systemic
[23] = systemic / in life observation / body weight / body weight gain + systemic / in life observation / water consumption / water consumption + …
[24] = systemic / organ weight / adrenal gland / absolute + systemic / organ weight / adrenal gland / relative to body weight
[25] = systemic / organ weight / adrenal gland / absolute + systemic / organ weight / adrenal gland / relative to body weight + systemic / in life …
[26] = systemic / in life observation / clinical signs / tremors + systemic / in life observation / mortality / mortality + systemic / organ weight…
[27] = systemic / hematology / erythrocyte (rbc) count differential / erythrocyte (rbc) + systemic / hematology / hemoglobin (hgb) / hemoglobin (…
[28] = systemic / in life observation / body weight / body weight
[29] = systemic / in life observation / body weight / body weight + systemic / pathology microscopic / liver / adenoma/carcinoma combined + …
[30] = systemic / in life observation / body weight / body weight gain
[31] = systemic / in life observation / body weight / body weight gain + systemic / pathology microscopic / harderian gland / adenoma + systemic / …
[32] = systemic / in life observation / body weight / body weight + systemic / in life observation / body weight / body weight gain + systemic / in…
[33] = systemic / in life observation / body weight / body weight gain + systemic / pathology gross / thyroid gland / enlarged
[34] = systemic / in life observation / body weight / body weight gain + systemic / pathology gross / thyroid gland / enlarged + systemic / …
[35] = systemic / pathology microscopic / thyroid gland / hyperplasia
[36] = systemic / in life observation / body weight / body weight gain + systemic / pathology microscopic / thyroid gland / hyperplasia + systemic…
[37] = systemic / clinical chemistry / albumin / albumin + systemic / clinical chemistry / triglycerides / triglycerides
[38] = systemic / clinical chemistry / alkaline phosphatase (alp/alk) / alkaline phosphatase (alp/alk) + systemic / clinical chemistry / bile acids…
[39] = group: offspring, developmental / developmental malformation / testes / delayed descent + developmental / developmental landmark / preputial separation / …
[40] = group: parental, systemic / in life observation / body weight / body weight + systemic / organ weight / adrenal gland / relative to body weight + systemic / …
[41] = group: reproductive, reproductive / reproductive performance / estrous cycle / periodicity + reproductive / reproductive performance / fertility / fertility
[42] = group: developmental, systemic / in life observation / body weight / fetal weight + developmental / developmental malformation / mouth / jaw / cleft palate
[43] = group: maternal, reproductive / reproductive performance / postimplantation loss / postimplantation loss + reproductive / reproductive performance / …
[44] = systemic / in life observation / clinical signs / erythema + systemic / in life observation / clinical signs / prostration + systemic / in …
[45] = systemic / in life observation / clinical signs / erythema + systemic / in life observation / clinical signs / salivation
[46] = systemic / in life observation / clinical signs / abnormal feces
[47] = systemic / in life observation / clinical signs / abnormal feces + systemic / in life observation / clinical signs / emesis
[48] = systemic / in life observation / body weight / body weight + systemic / in life observation / clinical signs / [other] + systemic / in life …
[49] = systemic / in life observation / body weight / body weight + systemic / in life observation / food consumption / food consumption + systemic…

In the case of `Oc1cccc(O)c1` [Resorcinol], the LOAEL (rat [1]; [23]) is reported as greater than 233 mg/kg/day, the NEL (rat [1]; [23]) is reported as 31 mg/kg/day and the NOAEL (rat [1]; [23]) is reported as no less than 233 mg/kg/day. It also gave an LEL (rat [1]; systemic / in life observation / water consumption / water consumption) of 86 mg/kg/day, an LEL (rat [2]) of 100 mg/kg/day and an LOAEL (rat [2]) of 100 mg/kg/day. For the same molecule, the NEL (rat [2]) was 50 mg/kg/day, the NOAEL (rat [2]) was 50 mg/kg/day and the LEL (mouse [3]; [24]) was 28 mg/kg/day. It also gave an NEL (mouse [3]; [24]) of less than 28 mg/kg/day, an LOAEL (mouse [3]; [25]) greater than 420 mg/kg/day and an NOAEL (mouse [3]; [25]) of no less than 420 mg/kg/day. It also gave an LEL (rat [4]) of 500 mg/kg/day, an LOAEL (rat [4]) greater than 500 mg/kg/day and an NEL (rat [4]) of 250 mg/kg/day. The NOAEL (rat [4]) was no less than 500 mg/kg/day, the LEL (mouse [5]) was 225 mg/kg/day and the LOAEL (mouse [5]) was 225 mg/kg/day. It also gave an NEL (mouse [5]) of 112 mg/kg/day, an NOAEL (mouse [5]) of 112 mg/kg/day and an LOAEL (rat [6]; [26]) greater than 520 mg/kg/day. For the same molecule, the NOAEL (rat [6]; [26]) was no less than 520 mg/kg/day, the LEL (rat [6]; [24]) was 32 mg/kg/day and the NEL (rat [6]; [24]) was less than 32 mg/kg/day.

`CNc1ccccc1C(=O)OC` [Methyl 2-(methylamino)benzoate] was tested, and the LOAEL (rat [7]; [27]) was greater than 244 mg/kg/day, the NEL (rat [7]; [27]) was 21 mg/kg/day and the NOAEL (rat [7]; [27]) was no less than 244 mg/kg/day. For the same molecule, the LEL (rat [7]; systemic / hematology / leukocyte (wbc) count differential / leukocyte (wbc) + systemic / organ weight / kidney / absolute + systemic / …) was 82 mg/kg/day.

With `C=Cc1ccccc1` [Styrene] the LEL (rat [8]; systemic / in life observation / body weight / body weight gain + systemic / in life observation / body weight / offspring (pup) weight) was 150 ppm, the NEL (rat [8]; systemic / in life observation / body weight / body weight gain + systemic / in life observation / water consumption / water consumption) was 50 ppm and the LOAEL (rat [8]; [23]) was greater than 500 ppm. The NOAEL (rat [8]; [23]) was no less than 500 ppm.

Work on `CN(C)c1ccc(C(=O)c2ccc(N(C)C)cc2)cc1` [Michler's ketone] yielded an LOAEL (mouse [9]; [28]) of 188 mg/kg/day, an NOAEL (mouse [9]; [28]) of less than 188 mg/kg/day and an LEL (mouse [9]; [29]) of 188 mg/kg/day. For the same molecule, the NEL (mouse [9]; [29]) was less than 188 mg/kg/day, the LOAEL (rat [10]; [28]) was 12.5 mg/kg/day and the NOAEL (rat [10]; [28]) was less than 12.5 mg/kg/day. It also gave an LEL (rat [10]; [29]) of 12.5 mg/kg/day and an NEL (rat [10]; [29]) of less than 12.5 mg/kg/day.

Work on `Nc1ccc(Oc2ccc(N)cc2)cc1` [4,4'-Oxydianiline] yielded an LEL (rat [11]) of 30 mg/kg/day, an LOAEL (rat [11]) of 30 mg/kg/day and an NEL (rat [11]) of 15 mg/kg/day. The NOAEL (rat [11]) was 15 mg/kg/day, the LOAEL (mouse [12]; [30]) was 22.5 mg/kg/day and the NOAEL (mouse [12]; [30]) was less than 22.5 mg/kg/day. It also gave an LEL (mouse [12]; [31]) of 22.5 mg/kg/day, an NEL (mouse [12]; [31]) of less than 22.5 mg/kg/day and an LOAEL (mouse [13]; [32]) greater than 557 mg/kg/day. For the same molecule, the NEL (mouse [13]; [32]) was 68 mg/kg/day, the NOAEL (mouse [13]; [32]) was no less than 557 mg/kg/day and the LEL (mouse [13]; systemic / in life observation / body weight / body weight + systemic / in life observation / body weight / body weight gain + systemic / …) was 138 mg/kg/day. It also gave an LOAEL (rat [14]; [33]) of 10 mg/kg/day, an NOAEL (rat [14]; [33]) of less than 10 mg/kg/day and an LEL (rat [14]; [34]) of 10 mg/kg/day. For the same molecule, the NEL (rat [14]; [34]) was less than 10 mg/kg/day, the LOAEL (rat [15]; [32]) was greater than 168 mg/kg/day and the NOAEL (rat [15]; [32]) was no less than 168 mg/kg/day. It also gave an LEL (rat [15]; [35]) of 27 mg/kg/day, an NEL (rat [15]; [35]) of less than 27 mg/kg/day and an LEL (mouse [16]; [30]) of 45 mg/kg/day. For the same molecule, the NEL (mouse [16]; [30]) was less than 45 mg/kg/day, the LOAEL (mouse [16]; [36]) was 90 mg/kg/day and the NOAEL (mouse [16]; [36]) was 45 mg/kg/day.

`CCCCOC(=O)c1ccccc1C(=O)OCCCC` [Dibutyl phthalate] showed an LEL (rat [17]; [37]) of 125 mg/kg/day, an NEL (rat [17]; [37]) of less than 125 mg/kg/day and an LOAEL (rat [17]; [38]) greater than 2000 mg/kg/day. The NOAEL (rat [17]; [38]) was no less than 2000 mg/kg/day, the LEL (rat [18]; [39]) was 531 mg/kg/day and the LOAEL (rat [18]; [39]) was greater than 531 mg/kg/day. The NEL (rat [18]; [39]) was 51.8 mg/kg/day, the NOAEL (rat [18]; [39]) was no less than 531 mg/kg/day and the LOAEL (rat [18]; [40]) was greater than 531 mg/kg/day. It also gave an NEL (rat [18]; [40]) of 1.61 mg/kg/day, an NOAEL (rat [18]; [40]) of no less than 531 mg/kg/day and an LEL (rat [18]; group: parental, systemic / organ weight / adrenal gland / relative to body weight) of 5.35 mg/kg/day. It also gave an LEL (rat [18]; group: reproductive, reproductive / reproductive performance / estrous cycle / periodicity) of 95.3 mg/kg/day, an LOAEL (rat [18]; [41]) greater than 1020 mg/kg/day and an NEL (rat [18]; [41]) of 9.24 mg/kg/day. For the same molecule, the NOAEL (rat [18]; [41]) was no less than 1020 mg/kg/day, the LOAEL (rat [19]; group: developmental, systemic / in life observation / body weight / fetal weight) was 630 mg/kg/day and the LEL (rat [19]; [42]) was 630 mg/kg/day. The NEL (rat [19]; [42]) was 500 mg/kg/day, the NOAEL (rat [19]; [42]) was 500 mg/kg/day and the LEL (rat [19]; [43]) was 630 mg/kg/day. It also gave an LOAEL (rat [19]; [43]) of 630 mg/kg/day, an NEL (rat [19]; [43]) of 500 mg/kg/day and an NOAEL (rat [19]; [43]) of 500 mg/kg/day.

`COc1ccc(NC(=O)c2c[nH]c3c2C(=O)CCCC3)c(F)c1` was tested, and the LOAEL (dog [20]; [44]) was greater than 250 mg/kg/day, the NOAEL (dog [20]; [44]) was no less than 250 mg/kg/day and the LEL (dog [20]; [45]) was 10 mg/kg/day. For the same molecule, the NEL (dog [20]; [45]) was less than 10 mg/kg/day, the LOAEL (dog [21]; [46]) was greater than 100 mg/kg/day and the NOAEL (dog [21]; [46]) was no less than 100 mg/kg/day. It also gave an LEL (dog [21]; [47]) of 5 mg/kg/day, an NEL (dog [21]; [47]) of less than 5 mg/kg/day and an LOAEL (rat [22]; [48]) greater than 250 mg/kg/day. It also gave an NOAEL (rat [22]; [48]) of no less than 250 mg/kg/day, an LEL (rat [22]; [49]) of 25 mg/kg/day and an NEL (rat [22]; [49]) of less than 25 mg/kg/day.
